Data as given in patent publication US20130217664A1, “NOVEL COMPOUNDS USEFUL FOR THE TREATMENT OF DEGENERATIVE AND INFLAMMATORY DISEASES” (priority 2012, published 2013).

Experiments:
Format in all cases: biochemical
human TYK2 = target: T1, human TYK2 (Homo sapiens, UniProt P29597); test: TYK2 inhibition assay; details: recombinant human TYK2 catalytic domain, polyGT substrate
T1 construct: catalytic domain (amino acids 871-1187; catalog number 08-147); purchased Carna Biosciences 08-147
T1 sequence (P29597 871-1187): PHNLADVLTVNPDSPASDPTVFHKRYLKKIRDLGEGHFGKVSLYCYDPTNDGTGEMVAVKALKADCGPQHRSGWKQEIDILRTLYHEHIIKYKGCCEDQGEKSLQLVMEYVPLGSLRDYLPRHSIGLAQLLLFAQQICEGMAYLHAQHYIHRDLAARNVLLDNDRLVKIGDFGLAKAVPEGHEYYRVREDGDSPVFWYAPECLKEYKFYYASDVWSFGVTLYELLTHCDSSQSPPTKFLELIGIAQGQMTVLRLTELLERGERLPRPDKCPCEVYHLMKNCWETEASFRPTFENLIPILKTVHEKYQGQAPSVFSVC
Procedure, shortened: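 Radiometric kinase reaction run 90 min at 30 °C, stopped with phosphoric acid, washed and scintillation-counted.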

human JAK2 = target: T2, human JAK2 (Homo sapiens, UniProt O60674); test: JAK2 inhibition assay (polyGT substrate / Ulight-JAK1 peptide); details: recombinant human JAK2 catalytic domain; polyGT or Ulight-JAK1 peptide assay
T2 construct: catalytic domain (amino acids 808-1132; catalog number PV4210); GST; purchased Invitrogen PV4210
Procedure, shortened: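 Two JAK2 formats: a ^33P-ATP polyGT assay (1 μM cold ATP, 90 min, 30° C., cpm read-out) and a Ulight-JAK1 peptide assay read by Europium-anti-phosphotyrosine fluorescence after 60 min at room temperature.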

human JAK1 = target: T3, human JAK1 (Homo sapiens, UniProt P23458); test: JAK1 inhibition assay (polyGT substrate / Ulight-JAK1 peptide); details: recombinant human JAK1 catalytic domain; polyGT or Ulight-JAK1 peptide assay
T3 construct: catalytic domain, amino acids 866-1154; catalog number PV4774; purchased Invitrogen PV4774
Procedure, shortened: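 Signal scaled between vehicle and 10 μM staurosporine. Radiometric polyGT reactions ran 45 min at 30 °C, counted after phosphoric-acid stop. Ulight peptide reactions ran 60 min at room temperature, fluorescence read after adding Eu-PT66 detection mix with EDTA.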

human JAK3 = target: T4, human JAK3 (Homo sapiens, UniProt P52333); test: JAK3 inhibition assay; details: recombinant human JAK3 catalytic domain; polyGT substrate
T4 construct: catalytic domain (amino acids 781-1124; catalog number PV3855); purchased Invitrogen PV3855
Procedure, shortened: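 Radiometric kinase assay: 0.5 ng JAK3 with 2.5 μg polyGT in Tris pH 7.5/MgCl2 buffer, 1 μM ATP plus 0.25 μCi 33P-γ-ATP, 1% DMSO, 45 min at 30 °C, stopped with phosphoric acid.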

T4 sequence (P52333 781-1124): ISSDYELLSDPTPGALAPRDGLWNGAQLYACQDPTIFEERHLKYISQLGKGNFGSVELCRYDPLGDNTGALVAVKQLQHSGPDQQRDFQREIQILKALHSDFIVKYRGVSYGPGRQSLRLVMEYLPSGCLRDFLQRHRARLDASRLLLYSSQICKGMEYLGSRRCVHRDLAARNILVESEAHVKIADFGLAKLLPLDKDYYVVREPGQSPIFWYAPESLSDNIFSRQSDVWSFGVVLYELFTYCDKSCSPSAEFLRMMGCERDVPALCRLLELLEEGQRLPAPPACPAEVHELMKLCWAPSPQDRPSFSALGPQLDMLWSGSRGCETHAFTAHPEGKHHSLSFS
T3 sequence (P23458 866-1154): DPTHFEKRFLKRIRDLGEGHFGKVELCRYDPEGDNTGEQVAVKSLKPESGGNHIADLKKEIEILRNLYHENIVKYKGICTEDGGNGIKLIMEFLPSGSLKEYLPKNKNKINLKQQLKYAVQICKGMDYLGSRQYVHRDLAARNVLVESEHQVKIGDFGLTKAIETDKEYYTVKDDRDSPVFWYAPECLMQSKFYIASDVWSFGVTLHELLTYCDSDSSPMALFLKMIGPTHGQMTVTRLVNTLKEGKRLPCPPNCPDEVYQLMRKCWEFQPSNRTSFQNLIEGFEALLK
T2 sequence (O60674 808-1132): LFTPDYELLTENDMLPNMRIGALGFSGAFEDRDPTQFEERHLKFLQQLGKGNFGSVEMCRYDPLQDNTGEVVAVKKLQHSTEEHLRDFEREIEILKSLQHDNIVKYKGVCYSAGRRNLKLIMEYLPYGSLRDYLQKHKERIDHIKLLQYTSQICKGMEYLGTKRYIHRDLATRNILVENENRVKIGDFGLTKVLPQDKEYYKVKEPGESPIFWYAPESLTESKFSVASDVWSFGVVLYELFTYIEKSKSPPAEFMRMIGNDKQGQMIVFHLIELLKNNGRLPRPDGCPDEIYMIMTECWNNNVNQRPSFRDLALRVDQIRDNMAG

Row | SMILES | IC50 (human TYK2) [nM] | IC50 (human JAK2) [nM] | IC50 (human JAK1) [nM] | IC50 (human JAK3) [nM]
1 | CCc1cc(C(C#N)N2CCOCC2)ncc1N(C)c1cc2c(cn1)ncn2C (stereo not shown) [Compound 444, {4-Ethyl-5-[methyl-(1-methyl-1H-imidazo[4,5-c]pyridin-6-yl)-amino]-pyridin-2-yl}-morpholin-4-yl-acetonitrile] | 0.01 to 100 | 0.01 to 100 | 0.01 to 100 | 101 to 500
2 | CCc1cc(N2CCCC2=O)ncc1N(C)c1cc2c(cn1)ncn2C [Compound 318, 1-{4-Ethyl-5-[methyl-(1-methyl-1H-imidazo[4,5-c]pyridin-6-yl)-amino]-pyridin-2-yl}-pyrrolidin-2-one] | > 1000 | 501 to 1000 | 101 to 500 | > 1000
3 | CN(c1cc2c(cn1)ncn2C)c1ccc(CN(CC#N)S(C)(=O)=O)cc1F [Compound 355] | 101 to 500 | 0.01 to 100 | 0.01 to 100 | 101 to 500
4 | CN(c1cc2c(cn1)ncn2C)c1c(F)cc(C2CN(C(=O)OC(C)(C)C)C2)cc1F [Compound 408, 3-{3,5-Difluoro-4-[methyl-(1-methyl-1H-imidazo[4,5-c]pyridin-6-yl)-amino]-phenyl)-azetidine-1-carboxylic acid tert-butyl ester] | > 1000 | > 1000 | > 1000 | > 1000
5 | CCc1cc(N2CCC(C#N)C2)ncc1N(C)c1cc2c(cn1)ncn2C (stereo not shown) [Compound 418, 1-{4-Ethyl-5-[methyl-(1-methyl-1H-imidazo[4,5-c]pyridin-6-yl)-amino]-pyridin-2-yl}-pyrrolidine-3-carbonitrile] | 0.01 to 100 | 0.01 to 100 | 0.01 to 100 | 0.01 to 100
6 | CN(c1ccc(/C=C/C#N)cc1)c1cc2c(cn1)ncn2C [Compound 345, (E)-3-{4-[Methyl-(1-methyl-1H-imidazo[4,5-c]pyridin-6-yl)-amino]-phenyl}-acrylonitrile] | > 1000 | 501 to 1000 | 101 to 500 | > 1000
7 | CCc1ccccc1N(Cc1cccnc1)c1cc2c(cn1)ncn2C [Compound 462, N-(2-ethylphenyl)-1-methyl-N-(pyridin-3-ylmethyl)-1H-imidazo[4,5-c]pyridin-6-amine] | > 1000 | > 1000 | 501 to 1000 | > 1000
8 | CCC(=O)NC1CN(C(C#N)c2ccc(N(C)c3cc4c(cn3)ncn4C)c(CC)c2)C1 (stereo not shown) [Compound 454, N-[1-(Cyano-{3-ethyl-4-[methyl-(1-methyl-1H-imidazo[4,5-c]pyridin-6-yl)-amino]-phenyl}-methyl)-azetidin-3-yl]-propionamide] | 0.01 to 100 | 0.01 to 100 | 0.01 to 100 | 101 to 500
9 | CCc1ccccc1N(CCN1CCCC1)c1cc2c(cn1)ncn2C [Compound 459, N-(2-ethylphenyl)-1-methyl-N-(2-(pyrrolidin-1-yl)ethyl)-1H-imidazo[4,5-c]pyridin-6-amine] | > 1000 | > 1000 | 101 to 500 | > 1000
10 | CN(c1cc2c(cn1)ncn2C)c1ccc(C#N)cc1OC(F)F [Compound 428, 3-Difluoromethoxy-4-[methyl-(1-methyl-1H-imidazo[4,5-c]pyridin-6-yl)-amino]-benzonitrile] | > 1000 | > 1000 | 101 to 500 | > 1000
11 | CCc1cc(OCC(N)=O)ccc1N(C)c1cc2c(cn1)ncn2C [Compound 299] | 101 to 500 | 101 to 500 | 0.01 to 100 | > 1000
12 | CN(c1cc2c(cn1)ncn2C)c1ccc(C2CN(C(=O)N3CCCCC3)C2)cc1OC(F)F [Compound 367, (3-{3-Difluoromethoxy-4-[methyl-(1-methyl-1H-imidazo[4,5-c]pyridin-6-yl)-amino]-phenyl}-azetidin-1-yl)-piperidin-1-yl-methanone] | > 1000 | > 1000 | 501 to 1000 | > 1000
13 | CCN(c1ccc2occc2c1)c1cc2c(cn1)ncn2C [Compound 4, N-(benzofuran-5-yl)-N-ethyl-1-methyl-1H-imidazo[4,5-c]pyridin-6-amine] | 101 to 500 | > 1000 | 101 to 500 | > 1000
14 | CCc1nc(C2CN(C(=O)OC(C)(C)C)C2)cnc1N(C)c1cc2c(cn1)ncn2C [Compound 457, 3-{6-Ethyl-5-[methyl-(1-methyl-1H-imidazo[4,5-c]pyridin-6-yl)-amino]-pyrazin-2-yl}-azetidine-1-carboxylic acid tert-butyl ester] | > 1000 | > 1000 | > 1000 | > 1000
15 | CCc1ccccc1N(CCN1CCOCC1)c1cc2c(cn1)ncn2C [Compound 460, N-(2-ethylphenyl)-1-methyl-N-(2-morpholinoethyl)-1H-imidazo[4,5-c]pyridin-6-amine] | > 1000 | > 1000 | 101 to 500 | > 1000
16 | CN(c1cc2c(cn1)ncn2C)c1ccc(C2CN(C(=O)N3CCC3)C2)cc1OC(F)F [Compound 366, Azetidin-1-yl-(3-{3-difluoromethoxy-4-[methyl-(1-methyl-1H-imidazo[4,5-c]pyridin-6-yl)-amino]-phenyl}-azetidin-1-yl)-methanone] | > 1000 | > 1000 | 501 to 1000 | > 1000
17 | CCn1nc(C)cc1N(C)c1cc2c(cn1)ncn2C [Compound 305, (2-Ethyl-5-methyl-2H-pyrazol-3-yl)-methyl-(1-methyl-1H-imidazo[4,5-c]pyridin-6-yl)-amine] | > 1000 | > 1000 | > 1000 | > 1000
18 | CCc1cc(N2CC(C(=O)NCC#N)C2)ncc1N(C)c1cc2c(cn1)ncn2C [Compound 401, 1-{4-Ethyl-5-[methyl-(1-methyl-1H-imidazo[4,5-c]pyridin-6-yl)-amino]-pyridin-2-yl}-azetidine-3-carboxylic acid cyanomethyl-amide] | > 1000 | 501 to 1000 | 101 to 500 | > 1000
19 | CCc1cc(C2(C#N)CN(S(C)(=O)=O)C2)ncc1N(C)c1cc2c(cn1)ncn2C [Compound 458, 3-{4-Ethyl-5-[methyl-(1-methyl-1H-imidazo[4,5-c]pyridin-6-yl)-amino]-pyridin-2-yl}-1-methanesulfonyl-azetidine-3-carbonitrile] | 501 to 1000 | 101 to 500 | 0.01 to 100 | 501 to 1000
20 | CCc1cc(N2CCCC(C#N)C2)ncc1N(C)c1cc2c(cn1)ncn2C (stereo not shown) [Compound 416, 4′-Ethyl-5′-[methyl-(1-methyl-1H-imidazo[4,5-c]pyridin-6-yl)-amino]-3,4,5,6-tetrahydro-2H-[1,2′]bipyridinyl-3-carbonitrile] | 101 to 500 | 0.01 to 100 | 0.01 to 100 | 0.01 to 100
21 | CCC(=O)N1CC(c2cc(CC)c(N(C)c3cc4c(cn3)ncn4C)cn2)C1 [Compound 336, 1-(3-{4-Ethyl-5-[methyl-(1-methyl-1H-imidazo[4,5-c]pyridin-6-yl)-amino]-pyridin-2-yl}-azetidin-1-yl)-propan-1-one] | > 1000 | > 1000 | 0.01 to 100 | > 1000
22 | CCc1cc(CN(C)S(C)(=O)=O)ncc1N(C)c1cc2c(cn1)ncn2C [Compound 317, N-{4-Ethyl-5-[methyl-(1-methyl-1H-imidazo[4,5-c]pyridin-6-yl)-amino]-pyridin-2-ylmethyl}-N-methyl-methane sulfonamide] | 0.01 to 100 | 101 to 500 | 0.01 to 100 | 0.01 to 100
23 | CCc1cc(N2CC[C@H](C)C2)ncc1N(C)c1cc2c(cn1)ncn2C [Compound 417, [4-Ethyl-6-((S)-3-methyl-pyrrolidin-1-yl)-pyridin-3-yl]-methyl-(1-methyl-1H-imidazo[4,5-c]pyridin-6-yl)-amine] | 0.01 to 100 | 0.01 to 100 | 0.01 to 100 | 101 to 500
24 | CCc1cc(CN2CC(C)(C)C2)ccc1N(C)c1cc2c(cn1)ncn2C [Compound 382, [4-(3,3-Dimethyl-azetidin-1-ylmethyl)-2-ethyl-phenyl]-methyl-(1-methyl-1H-imidazo[4,5-c]pyridin-6-yl)-amine] | > 1000 | > 1000 | 101 to 500 | > 1000
25 | Cc1cc(OCc2cccnc2)ccc1N(C)c1cc2c(cn1)ncn2C [Compound 55, N,1-dimethyl-N-(2-methyl-4-(pyridin-3-ylmethoxy)phenyl)-1H-imidazo[4,5-c]pyridin-6-amine] | > 1000 | > 1000 | 101 to 500 | > 1000
